For 31 compounds, IC50 results are on record in BindingDB's records for patent US20250051327 (Exscientia AI, 2025).

The target of the test is T1, Mucosa-associated lymphoid tissue lymphoma translocation protein 1 (Homo sapiens, UniProt Q9UDY8).
T1 sequence (Q9UDY8 whole entry): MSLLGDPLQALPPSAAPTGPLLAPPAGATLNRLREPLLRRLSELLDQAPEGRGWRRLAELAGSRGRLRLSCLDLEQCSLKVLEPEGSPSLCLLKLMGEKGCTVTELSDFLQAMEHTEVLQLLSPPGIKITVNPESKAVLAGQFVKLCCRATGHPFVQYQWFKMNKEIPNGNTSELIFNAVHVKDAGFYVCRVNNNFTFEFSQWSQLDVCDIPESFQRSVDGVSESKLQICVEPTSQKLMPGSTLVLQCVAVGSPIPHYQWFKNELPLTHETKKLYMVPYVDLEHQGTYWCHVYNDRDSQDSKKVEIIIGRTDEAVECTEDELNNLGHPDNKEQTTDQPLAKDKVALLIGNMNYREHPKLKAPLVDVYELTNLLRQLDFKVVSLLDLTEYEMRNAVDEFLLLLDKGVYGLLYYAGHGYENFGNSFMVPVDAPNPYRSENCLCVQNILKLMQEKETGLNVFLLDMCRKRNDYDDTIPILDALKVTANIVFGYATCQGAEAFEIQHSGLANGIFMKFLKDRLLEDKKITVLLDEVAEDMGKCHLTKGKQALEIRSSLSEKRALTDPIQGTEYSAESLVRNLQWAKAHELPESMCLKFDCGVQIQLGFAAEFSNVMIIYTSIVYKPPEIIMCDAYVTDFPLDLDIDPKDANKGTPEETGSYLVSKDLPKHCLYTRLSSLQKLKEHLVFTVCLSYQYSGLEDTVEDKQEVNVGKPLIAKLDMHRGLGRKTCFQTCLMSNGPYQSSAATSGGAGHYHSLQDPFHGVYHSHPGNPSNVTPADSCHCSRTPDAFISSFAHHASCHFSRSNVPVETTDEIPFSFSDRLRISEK
The test is described as follows: MALT-1 Inhibition Assay. The protocol: MALT-1 paracaspase activity was measured using the fluorogenic substrate Ac-LRSR-Rh110-DP (purchased from Biosantan GmbH). Proteolytic cleavage of the peptide—rhodamine conjugate results in an increase of rhodamine fluorescence which is inhibited by test compounds. Test compounds were diluted in DMSO in a series of 10 semi-log step doses, 15 nL of each compound dose were dispensed in 384 well polypropylene plates (HiBase non-binding, Greiner Bio-One cat #784900). All other assay components were diluted to appropriate working concentrations in assay buffer composed of: 200 mM Tris-HCl (pH 7.5; Sigma-Aldrich cat #T2663-1L), 0.1 mM EGTA (Sigma-Aldrich cat #E3889-10G), 0.05% CHAPS—Sigma-Aldrich cat #C9426-1G), 1 mM TCEP (Sigma-Aldrich cat #646547-10×1 mL), 0.8 M sodium citrate (Sigma-Aldrich cat #S1804-500G). Recombinant human MALT-1 (amino acids 340-824, accession NP_006776.1) was added to compound doses and equilibrated for 40 minutes at rt. The reaction was initiated by addition of substrate. Final concentrations of MALT-1 and substrate were 3 nM and 10 μM respectively. Reactions were incubated in the dark for 60 minutes at 25° C. Fluorescence was measured in a PHERAstar FSX plate reader (BMG LABTECH) with optical setup for excitation at 485 nm and emission at 520 nm, focal height of 11.8 mm, 20 flashes, gain 300. Percent inhibition values were calculated from relative fluorescence units at different doses and fitted to a 4-parameter logistic curve to determine IC50 values.
`CO[C@@H](C)c1c(Nc2ccc([C@H](N(C)C(=O)[C@@H]3CCC(=O)NC3)C(F)(F)F)cc2)cnn2cc(Cl)nc12` (relative stereo) [US20250051327, Reference CPD0082472] came in with an IC50 of 0.041 µM.

Regarding `COc1ccc2ncc(Nc3ccc([C@H](N(C)C(=O)[C@H]4CNC(=O)C4)C(F)(F)F)cc3)c([C@@H]3CCOC3)c2n1` (relative stereo) [US20250051327, Reference CPD0082477], the IC50 came out at 0.041 µM.

`CO[C@@H](C)c1c(Nc2ccc([C@H](N(C)C(=O)[C@H]3CCN(C(=O)CO)C3)C(F)(F)F)cc2)cnn2cc(Cl)nc12` (relative stereo) [US20250051327, Reference CPD0084139] gave an IC50 of 0.052 µM.

Regarding `CO[C@@H](C)c1c(Nc2ccc([C@H](N(C)C(=O)[C@@H]3CCN(C(=O)CO)C3)C(F)(F)F)cc2)cnn2cc(Cl)nc12` (relative stereo) [US20250051327, Reference CPD0084140], the IC50 stood at 0.045 µM.

The compound `COc1ccc2ncc(Nc3ccc([C@H](N(C)C(=O)[C@H]4CNC(=O)C4)C(F)(F)F)cc3)c([C@H]3CCOC3)c2n1` (relative stereo) [US20250051327, Reference CPD0084143] registered an IC50 of 0.072 µM. This IC50 is about 1.6-fold higher than that of the compound before.

Compound `COc1ccc2ncc(Nc3ccc([C@H](N(C)C(=O)[C@@H]4CNC(=O)C4)C(F)(F)F)cc3)c([C@H]3CCOC3)c2n1` (relative stereo) [US20250051327, Reference CPD0084144] returned a half-inhibitory concentration (IC50) of 0.076 µM.

Regarding `COc1ccc2ncc(Nc3ccc([C@H](N(C)C(=O)C4CCS(=O)(=O)CC4)C(F)(F)F)cn3)c(C(C)OC)c2n1` (stereo partly specified) [US20250051327, Reference CPD0019007], the IC50 came to 0.242 µM.

Compound `COc1ccc2ccc(Nc3ccc([C@H](N(C)C(=O)C4CCS(=O)(=O)CC4)C(F)(F)F)cc3)cc2n1` [US20250051327, Reference CPD0019078] had an IC50 of 0.182 µM.

As for `CN(C(=O)C1CCS(=O)(=O)CC1)[C@@H](c1ccc(N2CCCc3c2cnc2cc(Cl)nn32)nc1)C(F)(F)F` [US20250051327, Reference CPD0019212], the IC50 is 0.313 µM.

`CN(C(=O)C1CCS(=O)(=O)CC1)[C@@H](c1ccc(N2CCC3(CC3)c3c2cnc2cc(Cl)nn32)cc1)C(F)(F)F` [US20250051327, Reference CPD0019590] returned an IC50 of 0.064 µM.

`CN(C(=O)C1CCS(=O)(=O)CC1)[C@@H](c1ccc(N2CCC3(CC3)c3c2cnc2cc(Cl)nn32)nc1)C(F)(F)F` [US20250051327, Reference CPD0021660] registered an IC50 of 0.087 µM.

The compound `COC[C@@]1(C)CCN(c2ccc([C@H](N(C)C(=O)C3CCS(=O)(=O)CC3)C(F)(F)F)cc2)c2cnc3cc(Cl)nn3c21` [US20250051327, Reference CPD0073139] had an IC50 of 0.112 µM.

`COC[C@]1(C)CCN(c2ccc([C@H](N(C)C(=O)C3CCS(=O)(=O)CC3)C(F)(F)F)cc2)c2cnc3cc(Cl)nn3c21` [US20250051327, Reference CPD0073140] yielded an IC50 of 0.092 µM.

With `CN(C(=O)[C@@H]1CCN(C(=O)CC#N)C1)[C@@H](c1ccc(N2CCCc3c2cnc2cc(Cl)nn32)cc1)C(F)(F)F` [US20250051327, Reference CPD0073190], inhibition was half-maximal at 0.114 µM (IC50).

Turning to `CN(C(=O)[C@H]1CCN(C(=O)CC#N)C1)[C@@H](c1ccc(N2CCCc3c2cnc2cc(Cl)nn32)cc1)C(F)(F)F` [US20250051327, Reference CPD0073191], inhibition was half-maximal at 0.096 µM (IC50). This IC50 and that of the compound before are within 1.5-fold of each other.

`CN(C(=O)[C@H]1C[C@@H]([S@@+](C)(=N)[O-])C1)[C@@H](c1ccc(N2CCCc3c2cnc2cc(Cl)nn32)cc1)C(F)(F)F` [US20250051327, Reference CPD0073223] registered an IC50 of 0.057 µM. This IC50 lies about 1.7-fold lower than the previous one.

Consider `CN(C(=O)[C@H]1CC[S@](=N)(=O)CC1)[C@@H](c1ccc(N2CC(C)(C)Cc3c2cnc2cc(Cl)nn32)cc1)C(F)(F)F` [US20250051327, Reference CPD0073497], for which the IC50 stood at 0.052 µM.

Compound `CN(C(=O)[C@H]1CC[S@@](=N)(=O)CC1)[C@@H](c1ccc(N2CC(C)(C)Cc3c2cnc2cc(Cl)nn32)cc1)C(F)(F)F` [US20250051327, Reference CPD0073498] gave an IC50 of 0.053 µM.

`COC[C@@H]1CCN(c2ccc([C@H](N(C)C(=O)C3CCS(=O)(=O)CC3)C(F)(F)F)cc2)c2cnc3cc(Cl)nn3c21` [US20250051327, Reference CPD0073503] displayed an IC50 of 0.115 µM.

In the case of `O=C(CC1CS(=O)(=O)C1)N[C@@H](c1ccc(N2CCCc3c2cnc2cc(Cl)nn32)cc1)C(F)(F)F` [US20250051327, Reference CPD0073535], the half-maximal inhibitory concentration (IC50) is 0.403 µM.

`CN(C(=O)C1CCS(=O)(=O)CC1)[C@@H](c1ccc(N2CC[C@@]3(CCOC3)c3c2cnc2cc(Cl)nn32)cc1)C(F)(F)F` [US20250051327, Reference CPD0073762] had an IC50 of 0.053 µM.

In the case of `CN(C(=O)C1CCS(=O)(=O)CC1)[C@@H](c1ccc(N2CC[C@]3(CCOC3)c3c2cnc2cc(Cl)nn32)cc1)C(F)(F)F` [US20250051327, Reference CPD0073763], the IC50 was found to be 0.057 µM. This IC50 and that of the compound before are within 1.5-fold of each other.

The compound `CN(C(=O)[C@@H]1CS(=O)(=O)CC12COC2)[C@@H](c1ccc(N2CCCc3c2cnc2cc(Cl)nn32)cc1)C(F)(F)F` [US20250051327, Reference CPD0073974] returned an IC50 of 0.155 µM. Against the preceding compound, the IC50 is about 2.7-fold higher.

`CN(C(=O)[C@H]1CS(=O)(=O)CC12COC2)[C@@H](c1ccc(N2CCCc3c2cnc2cc(Cl)nn32)cc1)C(F)(F)F` [US20250051327, Reference CPD0073975]: the IC50 came to 0.112 µM. This IC50 and that of the compound before are within 1.5-fold of each other.

For the compound `COc1ccc2ncc(Nc3ccc([C@H](N(C)C(=O)C4CCS(=O)(=O)CC4)C(F)(F)F)cc3)c([C@H]3CCOC3)c2n1` [US20250051327, Reference CPD0074039], the concentration for half-maximal inhibition (IC50) turned out to be 0.138 µM.

Compound `COc1ccc2ncc(Nc3ccc([C@H](N(C)C(=O)C4CCS(=O)(=O)CC4)C(F)(F)F)cc3)c([C@@H]3CCOC3)c2n1` [US20250051327, Reference CPD0074040] had an IC50 of 0.083 µM. Compared with the last compound, the IC50 is about 1.7-fold lower.

In turn, `COc1ccc2ncc(Nc3ccc([C@H](N(C)C(=O)C4CCS(=O)(=O)CC4)C(F)(F)F)cc3)c(C3(OC)COC3)c2n1` [US20250051327, Reference CPD0076414] came in with an IC50 of 0.124 µM. The IC50 values of the last two compounds are within 1.5-fold of each other.

In turn, `CO[C@@H](C)c1c(Nc2ccc([C@H](N(C)C(=O)[C@@H]3CCC(=O)N3)C(F)(F)F)cc2)cnn2cc(Cl)nc12` [US20250051327, Reference CPD0082470] registered an IC50 of 0.045 µM. Compared with the last compound, the IC50 is about 2.8-fold lower.

With `COc1ccc2ncc(Nc3ccc([C@H](N(C)C(=O)[C@@H]4CNC(=O)C4)C(F)(F)F)cc3)c([C@@H]3CCOC3)c2n1` [US20250051327, Reference CPD0084142], the half-inhibitory concentration (IC50) was found to be 0.041 µM.

`CO[C@@H](C)c1c(Nc2ccc([C@H](N(C)C(=O)CN3CCN(C)CC3)C(F)(F)F)cc2)cnn2cc(Cl)nc12` [US20250051327, Reference CPD0084933] gave an IC50 of 0.137 µM.

For the compound `CO[C@@H](C)c1c(Nc2ccc([C@H](N(C)C(=O)C3CN(S(C)(=O)=O)C3)C(F)(F)F)cc2)cnn2cc(Cl)nc12` [US20250051327, Reference CPD0084936], the IC50 was 0.065 µM.

A word on the IC50: it is the concentration that gives 50% inhibition.
